Tests used:
human V2 receptor = human V2 receptor (Homo sapiens (Human), UniProt P30518); experiment: Cellular in vitro assay for determining vasopressin receptor activity (V2, CRE-luciferase); assay type: cell-based; conditions: CHO cell line transfected with human V2 receptor; [Arg8]-vasopressin at EC50 concentration; read-out: IC50 hV2
Experimental: (§1) B-1. Cellular In Vitro Assay for Determining Vasopressin Receptor Activity
(§2) The identification of agonists and antagonists of the V1a and V2 vasopressin receptors from humans, rats and dogs as well as the quantification of the activity of the compounds of the invention is carried out using recombinant cell lines. These cell lines originally derive from a hamster's ovary epithelial cell (Chinese Hamster Ovary, CHO K1, ATCC: American Type Culture Collection, Manassas, Va. 20108, USA). The test cell lines constitutively express the human, rat or dog V1a or V2 receptors. In case of the Gαq-coupled V1a receptors, cells are also stably transfected with a modified form of the calcium-sensitive photoproteins aequorin (human and rat V1a) or obe-lin (dog V1a), which, after reconstitution with the cofactor coelenterazine, emit light when there are increases in free calcium concentrations [Rizzuto R, Simpson A W, Brini M, Pozzan T, Nature 358, 325-327 (1992); Illarionov B A, Bondar V S, Illarionova V A, Vysotski E S, Gene 153 (2), 273-274 (1995)]. The resulting vasopressin receptor cells react to stimulation of the recombinantly expressed Via receptors by intracellular release of calcium ions, which can be quantified by the resulting photoprotein luminescence. The Gs-coupled V2 receptors are stably transfected into cell lines expressing the gene for firefly luciferase under control of a CRE-responsible promoter. Activation of V2 receptors induces the activation of the CRE-responsive promoter via cAMP increase, thereby inducing the expression of firefly luciferase. The light emitted by photoproteins of V1a cell lines as well as the light emitted by firefly luciferase of V2 cell lines corresponds to the activation or inhibition of the respective vasopressin receptor. The bioluminescence of the cell lines is detected using a suitable luminometer [Milligan G, Marshall F, Rees S, Trends in Pharmacological Sciences 17, 235-237 (1996)].
Vasopressin V2 Receptor Cell Lines:
On the day before the assay, the cells are plated out in culture medium (DMEM/F12, 2% FCS, 2 mM glutamine, 10 mM HEPES) in 384-well microtiter plates and kept in a cell incubator (96% humidity, 5% v/v CO2, 37° C.). On the day of the assay, test compounds in various concentrations and the agonist [Arg^8]-vasopressin at EC50 concentration are added together to the wells, and plates are incubated for 3 hours in a cell incubator. Upon addition of the cell lysis reagent Triton™ and the substrate luciferin, luminescence of firefly luciferase is measured in a luminometer.
(§3) Table 1A below lists individual IC50 values for the compounds of the invention (including racemic mixtures as well as separated enantiomers) that were obtained from cell lines transfected with the human Via or V2 receptor: […]

human V1a receptor = human V1a receptor (Homo sapiens (Human), UniProt P37288); experiment: Cellular in vitro assay for determining vasopressin receptor activity (V1a, aequorin luminescence); assay type: cell-based; conditions: for IC50: CHO cell line transfected with human V1a receptor, [Arg8]-vasopressin at EC50 concentration, read-out: IC50 hV1a; for ratio IC50 hV2/hV1a: selectivity, IC50 hV2 divided by IC50 hV1a
Experimental: as §1, §2
Vasopressin V1a Receptor Cell Lines:
On the day before the assay, the cells are plated out in culture medium (DMEM/F12, 2% FCS, 2 mM glutamine, 10 mM HEPES, 5 μg/ml coelenterazine) in 384-well microtiter plates and kept in a cell incubator (96% humidity, 5% v/v CO2, 37° C.). On the day of the assay, test compounds in various concentrations are placed for 10 minutes in the wells of the microtiter plate before the agonist [Arg^8]-vasopressin at EC50 concentration is added. The resulting light signal is measured immediately in a luminometer.
as §3

Chain of human V1a receptor (P37288 whole entry): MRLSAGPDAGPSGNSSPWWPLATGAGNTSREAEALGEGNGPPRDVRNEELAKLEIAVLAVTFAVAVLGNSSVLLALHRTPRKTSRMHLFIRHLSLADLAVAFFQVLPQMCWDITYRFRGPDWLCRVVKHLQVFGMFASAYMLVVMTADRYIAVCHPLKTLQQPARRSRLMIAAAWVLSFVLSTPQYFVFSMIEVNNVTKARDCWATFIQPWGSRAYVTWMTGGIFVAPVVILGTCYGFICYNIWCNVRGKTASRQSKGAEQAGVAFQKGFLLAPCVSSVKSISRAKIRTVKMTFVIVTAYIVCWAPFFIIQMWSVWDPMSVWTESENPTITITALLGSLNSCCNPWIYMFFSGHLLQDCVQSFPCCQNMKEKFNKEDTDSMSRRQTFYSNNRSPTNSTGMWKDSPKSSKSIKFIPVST
Chain of human V2 receptor (P30518 whole entry): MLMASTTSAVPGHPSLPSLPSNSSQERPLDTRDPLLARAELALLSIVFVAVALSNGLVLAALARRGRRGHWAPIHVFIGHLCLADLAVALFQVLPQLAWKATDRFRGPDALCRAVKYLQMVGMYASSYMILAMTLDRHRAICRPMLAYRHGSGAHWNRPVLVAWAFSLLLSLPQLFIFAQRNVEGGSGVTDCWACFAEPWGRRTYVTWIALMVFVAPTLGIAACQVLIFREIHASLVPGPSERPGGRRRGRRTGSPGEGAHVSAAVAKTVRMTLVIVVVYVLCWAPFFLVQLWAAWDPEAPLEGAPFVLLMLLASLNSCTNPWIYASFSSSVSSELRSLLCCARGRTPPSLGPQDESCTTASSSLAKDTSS

SMILES	IC50 (human V2 receptor) [nM]	IC50 (human V1a receptor) [nM]	ratio IC50 hV2/hV1a (human V1a receptor)
O=C(NC(Cn1c(-c2ccc(Cl)cc2)nn(Cc2ncn(-c3ncccc3Cl)n2)c1=O)C(F)(F)F)C1(C(F)(F)F)CC1 (racemic) [Example 41, N-{3-[3-(4-Chlorophenyl)-1-{[1-(3-chloropyridin-2-yl)-1H-1,2,4-triazol-3-yl]methyl}-5-oxo-1,5-dihydro-4H-1,2,4-triazol-4-yl]-1,1,1-trifluoropropan-2-yl}-1-(trifluoromethyl)cyclopropane-carboxamide]	57	1.5	38.0
CS(=O)(=O)CC(=O)NC(Cn1c(-c2ccc(Cl)cc2)nn(Cc2ncn(-c3ncccc3Cl)n2)c1=O)C(F)(F)F (racemic) [Example 44, N-{3-[3-(4-Chlorophenyl)-1-{[1-(3-chloropyridin-2-yl)-1H-1,2,4-triazol-3-yl]methyl}-5-oxo-1,5-dihydro-4H-1,2,4-triazol-4-yl]-1,1,1-trifluoropropan-2-yl}-2-(methylsulfonyl)acetamide]	120	1.75	68.6
O=C(NC(Cn1c(-c2ccc(Cl)cc2)nn(Cc2ncn(-c3ncccc3Cl)n2)c1=O)C(F)(F)F)[C@@H]1C[C@H](F)CN1 (mixture of isomers) [Example 48, N-{3-[3-(4-Chlorophenyl)-1-{[1-(3-chloropyridin-2-yl)-1H-1,2,4-triazol-3-yl]methyl}-5-oxo-1,5-dihydro-4H-1,2,4-triazol-4-yl]-1,1,1-trifluoropropan-2-yl}-4-fluoro-prolinamide]	305	5.4	
O=C(NC(Cn1c(-c2ccc(Cl)cc2)nn(Cc2ncn(-c3ncccc3Cl)n2)c1=O)C(F)(F)F)[C@@H]1C[C@@H](F)CN1 (mixture of isomers) [Example 49, N-{3-[3-(4-Chlorophenyl)-1-{[1-(3-chloropyridin-2-yl)-1H-1,2,4-triazol-3-yl]methyl}-5-oxo-1,5-dihydro-4H-1,2,4-triazol-4-yl]-1,1,1-trifluoropropan-2-yl}-4-fluoro-prolinamide]	378	3.35	
O=C(NC(Cn1c(-c2ccc(Cl)cc2)nn(Cc2ncn(-c3ncccc3Cl)n2)c1=O)C(F)(F)F)c1ccc(Cl)s1 (racemic) [Example 52, 5-Chloro-N-{3-[3-(4-chlorophenyl)-1-{[1-(3-chloropyridin-2-yl)-1H-1,2,4-triazol-3-yl]methyl}-5-oxo-1,5-dihydro-4H-1,2,4-triazol-4-yl]-1,1,1-trifluoropropan-2-yl}thiophene-2-carboxamide]	470	2.8	167.9
O=C(NC(Cn1c(-c2ccc(Cl)cc2)nn(Cc2ncn(-c3ncccc3C(F)(F)F)n2)c1=O)C(F)(F)F)C1(C(F)(F)F)CC1 (racemic) [Example 58, N-{3-[3-(4-Chlorophenyl)-5-oxo-1-({1-[3-(trifluoromethyl)pyridin-2-yl]-1H-1,2,4-triazol-3-yl}methyl)-1,5-dihydro-4H-1,2,4-triazol-4-yl]-1,1,1-trifluoropropan-2-yl}-1-(trifluoromethyl)cyclopropane-1-carboxamide]	120	3	40.2
O=C(CCC(F)(F)F)NC(Cn1c(-c2ccc(Cl)cc2)nn(Cc2ncn(-c3ncccc3C(F)(F)F)n2)c1=O)C(F)(F)F (racemic) [Example 59, N-{3-[3-(4-Chlorophenyl)-5-oxo-1-({1-[3-(trifluoromethyl)pyridin-2-yl]-1H-1,2,4-triazol-3-yl}methyl)-1,5-dihydro-4H-1,2,4-triazol-4-yl]-1,1,1-trifluoropropan-2-yl}-4,4,4-trifluorobutanamide]	75	1.9	39.5
CC(F)(F)C(=O)NC(Cn1c(-c2ccc(Cl)cc2)nn(Cc2ncn(-c3ncccc3C(F)(F)F)n2)c1=O)C(F)(F)F (racemic) [Example 60, N-{3-[3-(4-Chlorophenyl)-5-oxo-1-({1-[3-(trifluoromethyl)pyridin-2-yl]-1H-1,2,4-triazol-3-yl}methyl)-1,5-dihydro-4H-1,2,4-triazol-4-yl]-1,1,1-trifluoropropan-2-yl}-2,2-difluoropropanamide]	1550	18.5	83.8
O=C(CF)NC(Cn1c(-c2ccc(Cl)cc2)nn(Cc2ncn(-c3ncccc3C(F)(F)F)n2)c1=O)C(F)(F)F (racemic) [Example 61, N-{3-[3-(4-Chlorophenyl)-5-oxo-1-({1-[3-(trifluoromethyl)pyridin-2-yl]-1H-1,2,4-triazol-3-yl}methyl)-1,5-dihydro-4H-1,2,4-triazol-4-yl]-1,1,1-trifluoropropan-2-yl}-2-fluoroacetamide]	3800	50	76.0
O=C(NC(Cn1c(-c2ccc(Cl)cc2)nn(Cc2ncn(-c3ncccc3C(F)(F)F)n2)c1=O)C(F)(F)F)C1CS(=O)(=O)C1 (racemic) [Example 62, N-{3-[3-(4-Chlorophenyl)-5-oxo-1-({1-[3-(trifluoromethyl)pyridin-2-yl]-1H-1,2,4-triazol-3-yl}methyl)-1,5-dihydro-4H-1,2,4-triazol-4-yl]-1,1,1-trifluoropropan-2-yl}-1,1-dioxo-1lambda^6-thietane-3-carboxamide]	165	1.6	103.1
O=C(NC(Cn1c(-c2ccc(Cl)cc2)nn(Cc2ncn(-c3ncccc3C(F)(F)F)n2)c1=O)C(F)(F)F)C1CC(F)(F)C1 (racemic) [Example 63, N-{3-[3-(4-Chlorophenyl)-5-oxo-1-({1-[3-(trifluoromethyl)pyridin-2-yl]-1H-1,2,4-triazol-3-yl}methyl)-1,5-dihydro-4H-1,2,4-triazol-4-yl]-1,1,1-trifluoropropan-2-yl}-3,3-difluorocyclobutane-1-carboxamide]	58.8	0.72	82.2
CS(=O)(=O)CC(=O)NC(Cn1c(-c2ccc(Cl)cc2)nn(Cc2ncn(-c3ncccc3C(F)(F)F)n2)c1=O)C(F)(F)F (racemic) [Example 64, N-{3-[3-(4-Chlorophenyl)-5-oxo-1-({1-[3-(trifluoromethyl)pyridin-2-yl]-1H-1,2,4-triazol-3-yl}methyl)-1,5-dihydro-4H-1,2,4-triazol-4-yl]-1,1,1-trifluoropropan-2-yl}-2-(methanesulfonyl)acetamide]	78.2	1.2	65.2
N#CC1(C(=O)NC(Cn2c(-c3ccc(Cl)cc3)nn(Cc3ncn(-c4ncccc4C(F)(F)F)n3)c2=O)C(F)(F)F)CC1 (racemic) [Example 65, N-{3-[3-(4-Chlorophenyl)-5-oxo-1-({1-[3-(trifluoromethyl)pyridin-2-yl]-1H-1,2,4-triazol-3-yl}methyl)-1,5-dihydro-4H-1,2,4-triazol-4-yl]-1,1,1-trifluoropropan-2-yl}-1-cyanocyclopropane-1-carboxamide]	490	9.1	53.8
O=C(CC(F)(F)F)NC(Cn1c(-c2ccc(Cl)cc2)nn(Cc2ncn(-c3ncccc3C(F)(F)F)n2)c1=O)C(F)(F)F (racemic) [Example 67, N-{3-[3-(4-Chlorophenyl)-5-oxo-1-({1-[3-(trifluoromethyl)pyridin-2-yl]-1H-1,2,4-triazol-3-yl}methyl)-1,5-dihydro-4H-1,2,4-triazol-4-yl]-1,1,1-trifluoropropan-2-yl}-3,3,3-trifluoropropanamide]	57	1.15	49.6
COCC(=O)NC(Cn1c(-c2ccc(Cl)cc2)nn(Cc2ncn(-c3ncccc3C(F)(F)F)n2)c1=O)C(F)(F)F (racemic) [Example 68, N-{3-[3-(4-Chlorophenyl)-5-oxo-1-({1-[3-(trifluoromethyl)pyridin-2-yl]-1H-1,2,4-triazol-3-yl}methyl)-1,5-dihydro-4H-1,2,4-triazol-4-yl]-1,1,1-trifluoropropan-2-yl}-2-methoxyacetamide]	530	6.15	86.2

From patent publication US11149023B2, “Substituted triazole derivatives and uses thereof” (Bayer Pharma Aktiengesellschaft, priority 2017, dated 2021)
